In patent publication US6489098B1, “Means and methods for monitoring nucleoside reverse transcriptase inhibitor antiretroviral therapy and guiding therapeutic decisions in the treatment of HIV/AIDS” (ViroLogic, Inc., priority 1998, dated 2002):
“And” between values parts separate entries of the source, which are not always exact repeats. Equal entries are not always repeated. “Also recorded” adds a separate entry of the source.

Assays:
[1] = system: HIV-1 RT mutant resistance test vector M41L+A62V+T69SSA+M184V+T215Y; experiment: Phenotypic susceptibility assay, site directed RTV M41L+A62V+T69SSA+M184V+T215Y; assay type: cell-based; settings: for Average fold reduction in susceptibility: RTV with 41 + 62 + 69 + 184 + 215, 2 replicates; for effect on susceptibility (words): RTV with M41L+A62V+T69SSA+M184V+T215Y, addition of M184V to the 4 mutations
Description: (§1) Resistance tests were carried out with resistance test vectors using two host cell types. Resistance test vector viral particles were produced by a first host cell (the resistance test vector host cell) that was prepared by transfecting a packaging host cell with the resistance test vector and the packaging expression vector. The resistance test vector viral particles were then used to infect a second host cell (the target host cell) in which the expression of the indicator gene is measured.
(§2) The resistance test vectors containing a functional luciferase gene cassette were constructed and host cells were transfected with the resistance test vector DNA. The resistant test vectors contained patient-derived reverse transcriptase and protease sequences that were either susceptible or resistant to the antiretroviral agents, such as nucleoside reverse transcriptase inhibitors, non-nucleoside reverse transcriptase inhibitors and protease inhibitors. The resistance test vector viral particles produced by transfecting the resistance test vector DNA into host cells, either in the presence or absence of protease inhibitors, were used to infect target host cells grown either in the absence of NRTI or NNRTI or In the presence of increasing concentrations of the drug. The amount of luciferase activIty produced in infected target host cells in the presence of drug was compared to the amount of luciferase produced in infected target host cells in the absence of drug. Drug resistance was measured as the amount of drug required to inhibit by 50% the luciferase activity detected in the absence of drug (Inhibitory concentration 50%, IC50). The IC50 values were determined by plotting percent drug inhibition vs. log 10 drug concentration.
(§3) Host cells were seeded in 10-cm-diameter dishes and were transfected several days after plating with resistance test vector plasmid DNA and the envelope expression vector. Transfections were performed using a calcium-phosphate precipitation procedure. The cell culture media containing the DNA precipitate was replaced with fresh medium, from one to 24 hours, after transfection. Cell culture media containing resistance test vector viral particles was harvested one to four days after transfection and was passed through a […] filter before being stored at −80° C. HIV capsid protein (p24) levels in the harvested cell culture media were determined by an EIA method as described by the manufacturer (SIAC; Frederick, Md.). Before infection, target cells (293 and 293/T) were plated in cell culture media. Control infections were performed using cell culture media from mock transfections (no DNA) or transfections containing the resistance test vector plasmid DNA without the envelope expression plasmid. One to three or more days after infectIon the media was removed and cell lysis buffer (Promega) was added to each well. Cell lysates were assayed for luciferase activity (FIG. 3). The inhibitory effect of the drug was determined using the following equation:
(§4) % luciferase inhibition=1−(RLUluc[drug]÷RLUluc)×100
(§5) where RLUluc [drug] is the relative light unit of luciferase activity in infected cells in the presence of drug and RLUluc is the Relative Light Unit of luciferase activity in infected cells in the absence of drug. IC50 values were obtained from the sigmoidal curves that were generated from the data by plotting the percent inhibition of luciferase activity vs. the log 10 drug concentration. The drug inhibition curves are shown in (FIG. 3).
(§6) Genotypic changes that are observed to correlate with changes in phenotypic patterns of drug susceptibility are evaluated by construction of resistance test vectors containing the specific mutation on a defined, wild-type (drug susceptible) genetic background. Mutations may be incorporated alone and/or in combination with other known drug resistance mutations that are thought to modulate the susceptibility of HIV to a certain drug or class of drugs. […]

[2] = system: HIV-1 RT mutant resistance test vector 41 + 210 + 215; experiment: Phenotypic susceptibility assay, site directed RTV 41 + 210 + 215; assay type: cell-based; settings: RTV with 41 + 210 + 215; 3 replicates
Description: as §1, §2, §3, §4, §5, §6

[3] = system: HIV with RT Met184→Val mutation; settings: Met184→Val (M184V); cited from earlier work
[4] = system: HIV-1 RT mutant resistance test vector A62V; experiment: Phenotypic susceptibility assay, site directed RTV A62V; assay type: cell-based; settings: RTV with A62V vs wild type RTV; for Average fold reduction in susceptibility: 3 replicates
Description: as §1, §2, §3, §4, §5, §6

[5] = system: HIV-1 RT mutant resistance test vector A62V-T69SSA-L74V-RTV; experiment: Phenotypic susceptibility assay, site directed RTV A62V-T69SSA-L74V; assay type: cell-based; settings: for Average fold reduction in susceptibility: RTV with 62 + 69 + 74V, 1 replicate
Description: as §1, §2
as §3, with “Cell lysates were assayed for luciferase activity (FIG. 3).” left out
as §4
as §5, with “The drug inhibition curves are shown in (FIG. 3).” left out

[6] = system: HIV-1 RT mutant resistance test vector 41 + 62 + 69 + 75S + 210 + 215; experiment: Phenotypic susceptibility assay, site directed RTV 41 + 62 + 69 + 75S + 210 + 215; assay type: cell-based; settings: RTV with 41 + 62 + 69 + 75S + 210 + 215; 1 replicate
Description: as §1, §2, §3, §4, §5, §6

[7] = system: HIV-1 RT mutant resistance test vector A62V+T69SSA; experiment: Phenotypic susceptibility assay, site directed RTV A62V+T69SSA; assay type: cell-based; settings: for Average fold reduction in susceptibility: RTV with 62 + 69 (A62V+T69SSA), 4 replicates; for effect on susceptibility (words): RTV with A62V+T69SSA, compared with T69SSA alone
Description: as §1, §2, §3, §4, §5, §6

[8] = system: HIV-1 RT mutant resistance test vector 41 + 184 + 215; experiment: Phenotypic susceptibility assay, site directed RTV 41 + 184 + 215; assay type: cell-based; settings: RTV with 41 + 184 + 215; 3 replicates
Description: as §1, §2, §3, §4, §5, §6

[9] = system: HIV-1 RT mutant resistance test vector M41L-A62V-T69SSA-T215Y-RTV; experiment: Phenotypic susceptibility assay, site directed RTV M41L+A62V+T69SSA+T215Y; assay type: cell-based; settings: RTV with M41L+A62V+T69SSA+T215Y; addition of A62V to M41L+T69SSA+T215Y
Description: as §1, §2
as §3, with “Cell lysates were assayed for luciferase activity (FIG. 3).” left out
as §4
as §5, with “concentration.” for “concentration. The drug inhibition curves are shown in (FIG. 3).”
Mutations may be incorporated alone and/or in combination with other known drug resistance mutations that are thought to modulate the susceptibility of HIV to a certain drug or class of drugs. Mutations are introduced into the resistance test vector through any of the widely known methods for site-directed mutagenesis. In one embodiment of this invention the mega-primer PCR method for site-directed mutagenesis is used.

[10] = system: HIV-1 RT mutant resistance test vector T69SSA; experiment: Phenotypic susceptibility assay, site directed RTV T69SSA; assay type: cell-based; settings: RTV with T69SSA vs wild type RTV; for Average fold reduction in susceptibility: 3 replicates
Description: as §1, §2, §3, §4, §5, §6

SMILES: Nc1ccn([C@H]2CC[C@@H](CO)O2)c(=O)n1 [ddC, zalcitabine]
- Average fold reduction in susceptibility [1]: 2.90 fold
- effect on susceptibility (words) [1]: no effect on susceptibility to ddC or abacavir
- Average fold reduction in susceptibility [2]: 1.36 fold
- fold increase in IC50 / reduction in susceptibility [3]: four-fold to eight-fold
- Average fold reduction in susceptibility [4]: 0.74 fold
- Average fold reduction in susceptibility [5]: 1.8 fold and 1.80 fold
- Average fold reduction in susceptibility [6]: 2.58 fold
- Average fold reduction in susceptibility [7]: 1.74 fold
- Average fold reduction in susceptibility [8]: 1.73 fold
- effect on susceptibility (words) [9]: no effect on susceptibility
- Average fold reduction in susceptibility [10]: 1.55 fold

SMILES: Nc1nc(NC2CC2)c2ncn([C@H]3C=C[C@@H](CO)C3)c2n1 [ABC, abacavir]
- Average fold reduction in susceptibility [1]: 11.73 fold
- effect on susceptibility (words) [1]: no effect on susceptibility to ddC or abacavir
- Average fold reduction in susceptibility [2]: 2.25 fold
- fold increase in IC50 / reduction in susceptibility [3]: 2-5 fold
- Average fold reduction in susceptibility [4]: 0.59 fold
- Average fold reduction in susceptibility [6]: 14.21 fold
- Average fold reduction in susceptibility [7]: 2.71 fold
- Average fold reduction in susceptibility [8]: 3.02 fold
- effect on susceptibility (words) [9]: no effect on susceptibility
- Average fold reduction in susceptibility [10]: 2.52 fold

SMILES: O=c1[nH]cnc2c1ncn2[C@H]1CC[C@@H](CO)O1 [ddI, didanosine]
- Average fold reduction in susceptibility [1]: 2.55 fold
- effect on susceptibility (words) [1]: more susceptible
- Average fold reduction in susceptibility [2]: 1.08 fold
- fold increase in IC50 / reduction in susceptibility [3]: four-fold to eight-fold
- Average fold reduction in susceptibility [4]: 0.84 fold
- Average fold reduction in susceptibility [6]: 5.12 fold
- Average fold reduction in susceptibility [7]: 1.54 fold
- Average fold reduction in susceptibility [8]: 1.35 fold
- effect on susceptibility (words) [9]: further reduction in susceptibility
- Average fold reduction in susceptibility [10]: 1.32 fold

SMILES: Cc1cn([C@H]2C[C@H](N=[N+]=[N-])[C@@H](CO)O2)c(=O)[nH]c1=O [AZT, zidovudine]
- Average fold reduction in susceptibility [1]: 43.86 fold
- effect on susceptibility (words) [1]: increase in the susceptibility to AZT; also recorded: suppressed the reduced AZT susceptibility; also recorded: more susceptible
- Average fold reduction in susceptibility [2]: 56.14 fold
- effect on susceptibility (words) [4]: slight increases in susceptibility to AZT; also recorded: had no effect on AZT susceptibility; also recorded: had no affect on AZT susceptibility
- Average fold reduction in susceptibility [4]: 1.25 fold
- effect on susceptibility (words) ([5]; L74V introduced with A62V+T69SSA): shift of the susceptibility back to wild-type
- Average fold reduction in susceptibility [6]: >1000 fold
- Average fold reduction in susceptibility [7]: 6 fold and 7 fold and approximately six-fold and 6.87 fold
- effect on susceptibility (words) [7]: further reduce AZT susceptibility
- Average fold reduction in susceptibility [8]: 2.77 fold
- effect on susceptibility (words) [9]: reduced AZT susceptibility more than the combination of M41L and T215Y mutations alone; also recorded: further reduction in susceptibility
- effect on susceptibility (words) [10]: small but significant change in susceptibility; also recorded: reduced AZT susceptibility slightly
- Average fold reduction in susceptibility [10]: approximately two-fold and 1.98 fold

SMILES: Cc1cn([C@H]2C=C[C@@H](CO)O2)c(=O)[nH]c1=O [d4T, stavudine]
- Average fold reduction in susceptibility [1]: 3.98 fold
- effect on susceptibility (words) [1]: no effect on the susceptibility to d4T; also recorded: did reduce d4T susceptibility more than the T69SSA mutation alone; also recorded: more susceptible
- Average fold reduction in susceptibility [2]: 1.94 fold
- effect on susceptibility (words) [4]: no differences in their susceptibility to d4T; also recorded: did not reduce d4T susceptibility; also recorded: had no affect on d4T susceptibility
- Average fold reduction in susceptibility [4]: 0.84 fold
- Average fold reduction in susceptibility [5]: 1.5 fold and 1.50 fold
- Average fold reduction in susceptibility [6]: 14.13 fold
- Average fold reduction in susceptibility [7]: 1.66 fold
- effect on susceptibility (words) [7]: no effect on the susceptibility to d4T; also recorded: did not reduce d4T susceptibility more than the T69SSA mutation alone
- Average fold reduction in susceptibility [8]: 1.18 fold
- effect on susceptibility (words) [9]: did reduce d4T susceptibility more than the T69SSA mutation alone; also recorded: further reduction in susceptibility
- effect on susceptibility (words) [10]: did not reduce d4T susceptibility
- Average fold reduction in susceptibility [10]: 2 fold and less than two-fold and 1.58 fold
